The test system of data set [1] is HIV-1AZT7 (M41L/D67N/K70R/T215F/K219Q). The data set can be described thus: Drug susceptibility assay against drug-resistant HIV, fold resistance. The following applies: EC50 for mutant HIV-1 divided by EC50 for WT HIV-1. It is filed as cell-based. How it is done:
At 48 h post-infection, a cell lysis buffer and luminescent substrate (Gal-Screen; Tropix/Applied Biosystems) was added to each well, and relative light unit values were determined using a luminometer (ThermoLabSystems, Waltham, Mass.).
Drug susceptibility assays were performed using the single- and multiple-replication-cycle assays also described above.

The test system of the next data set is HIV-1 RT containing TAMS. The following applies: cited from earlier work.
The test system of another data set is adenosine deaminase. It counts as in vitro ADME. The following applies: 7 minutes with 0.002 units of enzyme; 50 μM, pH 7.4, 25° C. How it is done: To determine the propensity for deamination of the APN nucleosides by adenosine deaminase, compounds were incubated with the commercially available purified enzyme, and the reaction was followed spectrophotometrically. Reaction conditions were 50 mM potassium phosphate, pH 7.4, with 50 μM APN nucleoside in 0.5 mL at 25° C. Reaction time was 7 minutes with 0.002 units of enzyme and 120 minutes with 0.2 units of enzyme. (The unit definition of adenosine deaminase is one unit will deaminate 1.0 μmol of adenosine to inosine per minute at pH 7.5 at 25° C.) Deoxyadenosine was the positive control which was 59% deaminated under the given conditions in 7 minutes with 0.002 units of enzyme. Deoxyguanosine was the negative control. Optical density was measured at 265 nm or 285 nm. The difference in optical density between the beginning and the end of the experiment was divided by the extinction coefficient then multiplied by the volume of the reaction to determine the number of mols of substrate transformed into product. Mols of product were divided by mols of substrate equivalent to a 100% complete reaction then multiplied by 100 to obtain percent deamination. The limit of detection was 0.001 optical density units.

A further data set concerns HepG2 cells. The following applies: HepG2 cells incubated with 10 μM; cited from earlier work.

Some results are limits rather than exact numbers.

Here are results for four molecules from patent US20100279969A1, “AZIDO PURINE NUCLEOSIDES FOR TREATMENT OF VIRAL INFECTIONS” (priority 2007, published 2010).

`Cc1cn([C@H]2C[C@H](N=[N+]=[N-])[C@@H](CO)O2)c(=O)[nH]c1=O` [AZT, 3′-azido-3′-deoxythymidine] returned a fold resistance in data set [1] above 500 fold.
Regarding `Cc1cn([C@H]2C[C@H](N=[N+]=[N-])[C@@H](COP(=O)(O)O)O2)c(=O)[nH]c1=O` [AZT-MP], the “lower sensitivity of excision to inhibition by the next-correct dNTP than other NRTI analogs that lack a 3′-azido group” value in the data set with HIV-1 RT containing TAMS is on record as above 50 fold.
For `Nc1ncnc2c1ncn2[C@H]1C[C@H](O)[C@@H](CO)O1` [Deoxyadenosine], the percent deamination in the data set with adenosine deaminase is given as 59%.
In the case of `O=c1[nH]c(=O)n([C@@H]2O[C@H](CO)[C@@H](O)[C@@H]2F)cc1I` [fialuridine, 1,2′-deoxy-2′-fluoro-1-D-arabinofuranosly-5-iodo-uracil], in the data set with HepG2 cells, the “mitochondrial morphology in electron micrographs” value was “enlarged mitochondria with morphological changes consistent with mitochondrial dysfunction”.
